Test: molar heat capacity at constant pressure
Settings: 101.33 kPa, Crystal 1, DSC

O=[N+]([O-])[O-].O=[N+]([O-])[O-].[Ca+2] [calcium nitrate]
Settings | molar heat capacity at constant pressure [J/K/mol]
460.78 K | 169.24
461 K | 167.84
461.78 K | 169.39
462 K | 167.76
462.78 K | 169.54
463 K | 167.86
463.78 K | 169.69
464 K | 168.02
464.78 K | 169.84
465 K | 168.08
465.78 K | 169.99
466 K | 168.25
466.78 K | 170.14
467 K | 168.45
467.78 K | 170.28
468 K | 168.56
468.78 K | 170.43
469 K | 168.64
469.78 K | 170.57
470 K | 168.78
470.78 K | 170.71
471 K | 169.08
471.78 K | 170.84
472 K | 169
472.78 K | 170.98
473 K | 169.04
473.78 K | 171.11
474 K | 169.16
474.78 K | 171.24
475 K | 169.1
475.78 K | 171.37
476 K | 169.34
476.78 K | 171.5
477 K | 169.7
477.78 K | 171.63
478 K | 169.85
478.78 K | 171.76
479 K | 169.98
479.78 K | 171.88
480 K | 170.3
480.78 K | 172.01
481 K | 170.38
481.78 K | 172.14
482 K | 170.53
482.78 K | 172.27
483 K | 170.78
483.78 K | 172.4
484 K | 171.03
484.78 K | 172.53
485 K | 171.06
485.78 K | 172.66
486 K | 171.2
486.78 K | 172.79
487 K | 171.33
487.78 K | 172.92
488 K | 171.57
488.78 K | 173.05
489 K | 171.63
489.78 K | 173.19
490 K | 171.74
490.78 K | 173.32
491 K | 171.84
491.78 K | 173.45
492 K | 172.06
492.78 K | 173.58
493 K | 172.18
493.78 K | 173.7
494 K | 172.32
494.78 K | 173.83
495 K | 172.25
495.78 K | 173.96
496 K | 172.55
496.78 K | 174.08
497 K | 172.8
497.78 K | 174.21
498 K | 172.81
498.78 K | 174.34
499 K | 172.68
499.78 K | 174.47
500 K | 172.79
500.78 K | 174.6
501 K | 172.74
501.78 K | 174.72
502 K | 172.79
502.78 K | 174.85
503 K | 172.93
503.78 K | 174.98
504 K | 173.02
504.78 K | 175.1
505 K | 173.14
505.78 K | 175.23
506 K | 173.3
506.78 K | 175.35
507 K | 173.5
507.78 K | 175.47
508 K | 173.86
508.78 K | 175.6
509 K | 173.88
509.78 K | 175.72
510 K | 173.92
510.78 K | 175.84
511 K | 174.13
511.78 K | 175.96
512 K | 174.3
512.78 K | 176.08
513 K | 174.4
513.78 K | 176.2
514 K | 174.42
514.78 K | 176.32
515 K | 174.62
515.78 K | 176.44
516 K | 174.84
516.78 K | 176.57
517 K | 175.25
517.78 K | 176.69
518 K | 175.28
518.78 K | 176.81
519 K | 175.29
519.78 K | 176.93
520 K | 175.21
520.78 K | 177.05
521 K | 175.26
521.78 K | 177.17
522 K | 175.43
522.78 K | 177.29
523 K | 175.67
523.78 K | 177.42
524 K | 175.75
524.78 K | 177.54
525 K | 175.8
525.78 K | 177.66
526 K | 175.94
526.78 K | 177.78
527 K | 175.82
527.78 K | 177.91
528 K | 176.06
528.78 K | 178.03
529 K | 176.19
529.78 K | 178.15
530 K | 176.36
530.78 K | 178.27
531 K | 176.31
531.78 K | 178.39
532 K | 176.49
532.78 K | 178.51
533 K | 176.66
533.78 K | 178.64
534 K | 176.93
534.78 K | 178.76
535 K | 177.11
535.78 K | 178.88
536 K | 177.34
536.78 K | 179
537 K | 177.34
537.78 K | 179.12
538 K | 177.42
538.78 K | 179.24
539 K | 177.46
539.78 K | 179.36
540 K | 177.51
540.78 K | 179.48
541 K | 177.41
541.78 K | 179.6
542 K | 177.7
542.78 K | 179.71
543 K | 177.98
543.78 K | 179.83
544 K | 178.12
544.78 K | 179.95
545 K | 178.25
545.78 K | 180.07
546 K | 178.24
546.78 K | 180.18
547 K | 178.5
547.78 K | 180.3
548 K | 178.69
548.78 K | 180.41
549 K | 178.65
549.78 K | 180.52
550 K | 178.93
550.78 K | 180.64
551 K | 179.14
551.78 K | 180.75
552 K | 179.27
552.78 K | 180.86
553 K | 179.3
553.78 K | 180.97
554 K | 179.36
554.78 K | 181.08
555 K | 179.38
555.78 K | 181.19
556 K | 179.42
556.78 K | 181.3
557 K | 179.62
557.78 K | 181.42
558 K | 179.86
558.78 K | 181.53
559 K | 179.79
559.78 K | 181.64
560 K | 180.01
560.78 K | 181.75
561 K | 180.29
561.78 K | 181.86
562 K | 180.36
562.78 K | 181.98
563 K | 180.34
563.78 K | 182.09
564 K | 180.52
564.78 K | 182.2
565 K | 180.58
565.78 K | 182.32
566 K | 180.69
566.78 K | 182.43
567 K | 180.68
567.78 K | 182.55
568 K | 180.69
568.78 K | 182.66
569 K | 180.72
569.78 K | 182.78
570 K | 180.95
570.78 K | 182.89
571 K | 181.01
571.78 K | 183
572 K | 181.17
572.78 K | 183.12
573 K | 181.26
573.78 K | 183.23
574 K | 181.32
574.78 K | 183.35
575 K | 181.37
575.78 K | 183.47
576 K | 181.6
576.78 K | 183.59
577 K | 181.65
577.78 K | 183.7
578 K | 181.77
578.78 K | 183.82
579 K | 181.78
579.78 K | 183.94
580 K | 181.89
580.78 K | 184.05
581 K | 181.94
581.78 K | 184.16
582 K | 182.11
582.78 K | 184.27
583 K | 182.13
583.78 K | 184.38
584 K | 182.17
584.78 K | 184.49
585 K | 182.35
585.78 K | 184.59
586 K | 182.41
586.78 K | 184.69
587 K | 182.46
587.78 K | 184.79
588 K | 182.63

— the NIST ThermoML archive (doi:10.1016/j.jct.2019.03.007)
